The NIST ThermoML archive (doi:10.1016/j.fluid.2004.10.028)
Numbers after ± are expanded uncertainties.

Details: Liquid, Capillary tube (Ostwald / Ubbelohde) method

O [water]
viscosity [mPa·s]
Details	296.7 K	338.3 K	372.4 K	413.62 K	469.4 K	500.22 K	544.23 K	573.7 K
5000 kPa	0.918 ± 0.028	0.431 ± 0.013	0.286 ± 0.009	0.196 ± 0.006	–	–	–	–
10000 kPa	0.917 ± 0.028	0.434 ± 0.013	0.287 ± 0.009	0.197 ± 0.006	0.138 ± 0.004	0.12 ± 0.004	0.0983 ± 0.0032	0.086 ± 0.0028
20000 kPa	0.915 ± 0.028	0.435 ± 0.013	0.288 ± 0.009	0.201 ± 0.006	0.141 ± 0.004	0.123 ± 0.004	0.1012 ± 0.0033	0.0891 ± 0.0029
40000 kPa	0.914 ± 0.028	0.44 ± 0.014	0.293 ± 0.009	0.205 ± 0.006	0.145 ± 0.005	0.127 ± 0.004	0.106 ± 0.0034	0.095 ± 0.0031
